The subject of the first test is CT26 tumors.
Experiment: not given
To be noted: repeated doses; cited from earlier work.
Chain of indoleamine 2,3-dioxygenase (IDO) in Hela cells induced by IFN-γ (P14902 whole entry): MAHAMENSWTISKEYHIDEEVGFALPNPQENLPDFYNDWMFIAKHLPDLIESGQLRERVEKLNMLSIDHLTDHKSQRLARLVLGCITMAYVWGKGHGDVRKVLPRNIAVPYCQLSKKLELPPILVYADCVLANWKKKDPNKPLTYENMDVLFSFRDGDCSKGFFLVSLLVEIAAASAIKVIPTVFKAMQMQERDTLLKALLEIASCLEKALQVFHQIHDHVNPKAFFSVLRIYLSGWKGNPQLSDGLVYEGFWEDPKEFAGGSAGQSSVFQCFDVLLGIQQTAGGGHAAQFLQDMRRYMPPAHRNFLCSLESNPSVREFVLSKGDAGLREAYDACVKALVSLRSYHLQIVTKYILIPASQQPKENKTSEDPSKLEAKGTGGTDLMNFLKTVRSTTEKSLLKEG
Turning to `NS(=O)(=O)NCCNc1nonc1C(=NO)Nc1ccc(F)c(Br)c1` [INCB-024360], the “expansion of CT26 tumors” value is reported as “prevented the expansion of CT26 tumors”.

In another test the target is plasma IDO1 (Mus musculus (Mouse), UniProt P28776).
Chain of plasma IDO1 (P28776 whole entry): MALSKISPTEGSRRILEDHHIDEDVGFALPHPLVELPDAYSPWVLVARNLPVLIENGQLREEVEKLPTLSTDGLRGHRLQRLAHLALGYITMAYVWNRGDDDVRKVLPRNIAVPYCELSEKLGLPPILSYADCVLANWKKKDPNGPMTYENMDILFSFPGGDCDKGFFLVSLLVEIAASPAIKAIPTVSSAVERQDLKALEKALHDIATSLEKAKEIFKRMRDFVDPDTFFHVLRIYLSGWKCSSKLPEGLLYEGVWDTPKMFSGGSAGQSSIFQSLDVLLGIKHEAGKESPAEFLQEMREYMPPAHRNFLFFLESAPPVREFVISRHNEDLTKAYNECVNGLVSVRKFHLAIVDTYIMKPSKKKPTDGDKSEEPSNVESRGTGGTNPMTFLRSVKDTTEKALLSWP
Experiment: not given
The conditions noted are these: single dose, nude mice; cited from earlier work.
`NS(=O)(=O)NCCNc1nonc1C(=NO)Nc1ccc(F)c(Br)c1` [INCB-024360]: the “inhibition of the activity of plasma IDO1” value is recorded as “effectively inhibit the activity of plasma IDO1 in nude mice at the same level as that in IDO-deficient mice”.

The next test has as its target indoleamine 2,3-dioxygenase (IDO) in Hela cells induced by IFN-γ (Homo sapiens (Human), UniProt P14902). The test is described as follows: IDO Cellular Activity Inhibition Assay (Ehrlich method). The format is cell-based. To be noted: 24 hours, OD490. The procedure:
IDO Cellular Activity Inhibition Assay
The effect of the compounds of the present invention on the activity of indoleamine 2,3-dioxygenase (IDO) in Hela cells induced by IFN-γ was evaluated by the Ehrlich method.
The experimental principle is summarized as follows: IDO expression is low in Hela cells under no induction, but a certain concentration of IFN-γ can induces Hela cells to express IDO which catalyzes the conversion of tryptophan to N-formyl kynurenine, which in turn is hydrolyzed by trichloroacetic acid to give kynurenine. Kynurenine then reacts with the Ehrlich reagent to give a color enabling detection of the IDO activity. The absorbance at 490 nm (OD490) is directly proportional to the IDO activity.
The test compound was dissolved in DMSO (Sigma, Cat. No. D5879) and diluted to 5 mM, then serially diluted 3-fold with DMSO to a minimum concentration of 2.29 μM, and each concentration point was further diluted 50-fold with FBS-free DMEM medium (ThermoFisher, Cat. No. 11995073). If a compound's IC50 value was very low, the initial concentration of the compound was lowered.
Hela cells (ATCC, Cat. No. CCL-2) were cultured in DMEM complete medium containing 10% FBS (GBICO, Cat. No. 10099-141) and 100 U/mL streptomycin mixture (ThermoFisher, Cat. No. 15140122). When covering the culture vessel 80-90%, the cells were digested with 0.25% trypsin (containing EDTA) (ThermoFisher, Cat. No. 25200056) and planted in 96-well plates (Corning, Cat. No. 3599) by 20000 cells per well (80 μL of DMEM medium). The plates were then incubated in a 37° C., 5% CO2 incubator overnight (18-20 hours).
After overnight, 10 μL of DMEM-diluted compound and 10 μL of 500 ng/mL of IFN-γ were added to each well, and gently mixed and the 96-well plates were placed in a 37° C., 5% CO2 incubator for further culturing. After 24 hours, they were removed and centrifuged at room temperature under 2000×g for 5 min, and then the supernatants were transferred to reaction plates (Sigma, Cat. No. CLS3695). One-twentieth of trichloroacetic acid (Sigma, Cat. No. T9159) was added and incubated at 60° C. After 30 min, the reaction plates were centrifuged at room temperature under 2000×g for 5 min. The supernatants were transferred to clean reaction plates, an equal volume of the Ehrlich reagent was added, mixed, and incubated at room temperature. After 15 min, OD490 of each well was measured.
In this experiment, OD490 without IFN-γ but with DMEM medium replacement was referred as OD490100% inhibition. OD490 with IFN-γ and 0.2% DMSO was referred as OD4900% inhibition. The percentage of inhibition on the IDO1 activity in Hela cells by a compound was calculated using the following formula: Inhibition %=100−100*(OD490compound−OD490100% inhibition)/(OD4900% inhibition−OD490100% inhibition)
Where Y is the percentage of inhibition, Bottom is the bottom platform value of the S-curve, Top is the top platform value of the S-curve, X is the logarithm of the concentration of the test compound, and slope factor is the slope coefficient of the curve.
With `C[C@@H](C(=O)Nc1ccc(S(F)(F)(F)(F)F)cc1)[C@H]1CC[C@@H](c2ccnc3ccc(F)cc32)CC1` [Compound 1, (R)-2-((1s,4S)-4-(6-fluoroquinolin-4-yl)cyclohexyl)-N-(4-(pentafluoro-λ^6-sulfanyl)phenyl)propanamide], the IC50 was under 50 nM.
The same measure, in the same setting: next, `C[C@@H](C(=O)Nc1ccc(S(F)(F)(F)(F)F)cc1)[C@H]1CC[C@H](c2ccnc3ccc(F)cc32)CC1` [Compound 2, (R)-2-((1r,4R)-4-(6-fluoroquinolin-4-yl)cyclohexyl)-N-(4-(pentafluoro-λ^6-sulfanyl)phenyl)propanamide]: 200 to 1000 nM.
As for `Cc1cc([C@H]2CC[C@@H]([C@@H](C)C(=O)Nc3ccc(S(F)(F)(F)(F)F)cc3)CC2)ccn1` [Compound 3, (R)-2-((1s,4S)-4-(2-methylpyridin-4-yl)cyclohexyl)-N-(4-(pentafluoro-λ^6-sulfanyl)phenyl)propanamide], the half-inhibitory concentration (IC50) is under 50 nM.
The same measure, in the same setting: next, `C[C@@H](C(=O)Nc1ccc(S(F)(F)(F)(F)F)cc1)C1CCC(c2ccnc3ccnn23)CC1` (stereo partly drawn) [Compound 4, (R)-N-(4-(pentafluoro-λ^6-sulfanyl)phenyl)-2-(4-(pyrazolo[1,5-a]pyrimidin-7-yl)cyclohexyl)propanamide]: 50 to 200 nM; `O=C(CC1(O)CCC(c2ccnc3ccc(F)cc23)CC1)Nc1ccc(S(F)(F)(F)(F)F)cc1` (stereo not drawn) [Compound 5, 2-(4-(6-fluoroquinolin-4-yl)-1-hydroxycyclohexyl)-N-(4-(pentafluoro-λ^6-sulfanyl)phenyl)acetamide]: under 50 nM.
Still for that read-out and setting: next, `C[C@@H](C(=O)Nc1cccc(S(F)(F)(F)(F)F)c1)[C@H]1CC[C@@H](c2ccnc3ccc(F)cc32)CC1` [Compound 8, (R)-2-((1s,4S)-4-(6-fluoroquinolin-4-yl)cyclohexyl)-N-(3-(pentafluoro-λ^6-sulfanyl)phenyl)propanamide]: 200 to 1000 nM; `CC(NC(=O)c1ccc(S(F)(F)(F)(F)F)cc1)[C@H]1CC[C@@H](c2ccnc3ccc(F)cc32)CC1` (stereo partly drawn) [Compound 9, N-(1-((1s,4s)-4-(6-fluoroquinolin-4-yl)cyclohexyl)ethyl)-4-(pentafluoro-λ^6-sulfanyl)benzamide]: under 50 nM.
